The NIST ThermoML archive (doi:10.1016/j.jct.2018.09.010)
Numbers after ± are expanded uncertainties.

Experiment: relative permittivity at various frequencies (dimensionless); xn = mol fraction of the nth substance listed
Settings: Gas, Frequency=385 MHz, Reentrant cavity resonator

[C-]#[O+] [carbon monoxide] + O=C=O
Settings | relative permittivity
255.04 K, 1972.8 kPa, x1 = 0.7493 | 1.01697 ± 0.075
255.04 K, 3976.6 kPa, x1 = 0.7493 | 1.03607 ± 0.075
255.05 K, 3004.5 kPa, x1 = 0.4959 | 1.03119 ± 0.075
255.05 K, 5999.5 kPa, x1 = 0.7493 | 1.05751 ± 0.076
255.06 K, 1479.4 kPa, x1 = 0.4959 | 1.01417 ± 0.075
255.06 K, 1511.8 kPa, x1 = 0.4959 | 1.01451 ± 0.075
255.06 K, 2026.5 kPa, x1 = 0.7493 | 1.01747 ± 0.075
255.06 K, 3003.3 kPa, x1 = 0.4959 | 1.03118 ± 0.075
255.06 K, 4001.7 kPa, x1 = 0.4959 | 1.04416 ± 0.076
255.06 K, 5990.8 kPa, x1 = 0.7493 | 1.05742 ± 0.076
255.06 K, 7992.1 kPa, x1 = 0.7493 | 1.08067 ± 0.077
273.14 K, 1964 kPa, x1 = 0.7493 | 1.01551 ± 0.075
273.14 K, 3995.6 kPa, x1 = 0.7493 | 1.03288 ± 0.075
273.14 K, 5997.2 kPa, x1 = 0.7493 | 1.05136 ± 0.076
273.15 K, 2016.4 kPa, x1 = 0.7493 | 1.01594 ± 0.075
273.15 K, 4009 kPa, x1 = 0.7493 | 1.033 ± 0.075
273.15 K, 5997.2 kPa, x1 = 0.7493 | 1.05135 ± 0.076
273.15 K, 7991.2 kPa, x1 = 0.7493 | 1.07098 ± 0.077
273.2 K, 1454.1 kPa, x1 = 0.4959 | 1.01273 ± 0.075
273.2 K, 2480.8 kPa, x1 = 0.4959 | 1.02261 ± 0.075
273.2 K, 4502 kPa, x1 = 0.4959 | 1.0448 ± 0.076
273.2 K, 5505.6 kPa, x1 = 0.4959 | 1.05746 ± 0.076
273.21 K, 3471.2 kPa, x1 = 0.4959 | 1.03299 ± 0.075
293.23 K, 1980.8 kPa, x1 = 0.7493 | 1.0144 ± 0.075
293.23 K, 3995.9 kPa, x1 = 0.7493 | 1.02993 ± 0.075
293.23 K, 4015.8 kPa, x1 = 0.7493 | 1.0301 ± 0.075
293.23 K, 6011.2 kPa, x1 = 0.7493 | 1.04635 ± 0.076
293.23 K, 6015 kPa, x1 = 0.7493 | 1.04638 ± 0.076
293.23 K, 8001.1 kPa, x1 = 0.7493 | 1.0633 ± 0.077
293.24 K, 2023.8 kPa, x1 = 0.7493 | 1.01472 ± 0.075
293.25 K, 2039.7 kPa, x1 = 0.4959 | 1.0167 ± 0.075
293.25 K, 3988.8 kPa, x1 = 0.4959 | 1.03469 ± 0.075
293.25 K, 4025.1 kPa, x1 = 0.4959 | 1.03504 ± 0.075
293.25 K, 5986 kPa, x1 = 0.4959 | 1.05557 ± 0.076
293.26 K, 1975.2 kPa, x1 = 0.4959 | 1.01614 ± 0.075
293.26 K, 6541.1 kPa, x1 = 0.4959 | 1.06185 ± 0.076
313.26 K, 1937.1 kPa, x1 = 0.4959 | 1.01462 ± 0.075
313.26 K, 2024.1 kPa, x1 = 0.4959 | 1.0153 ± 0.075
313.26 K, 5954.7 kPa, x1 = 0.4959 | 1.04939 ± 0.076
313.26 K, 6218.2 kPa, x1 = 0.4959 | 1.0519 ± 0.076
313.27 K, 4013.4 kPa, x1 = 0.4959 | 1.03178 ± 0.075
313.28 K, 1974.2 kPa, x1 = 0.7493 | 1.01333 ± 0.075
313.28 K, 2022.8 kPa, x1 = 0.7493 | 1.01367 ± 0.075
313.28 K, 3992.7 kPa, x1 = 0.7493 | 1.02755 ± 0.075
313.28 K, 5954.9 kPa, x1 = 0.7493 | 1.04192 ± 0.076
313.28 K, 7996.5 kPa, x1 = 0.7493 | 1.05736 ± 0.076
313.29 K, 6015.3 kPa, x1 = 0.7493 | 1.04237 ± 0.076
